Reference: PubChem BioAssay AID328 (DTP/NCI, 2004)
Values joined by “and” are separate entries in the source; they are usually repeats but may differ in a detail not shown here. Equal entries are not always repeated. Toxic doses and inconclusive results are not listed.

Test system: BDF1 mice, P388 leukemia ip, median survival T/C
Assay: NCI In Vivo Anticancer Drug Screen. Data for tumor model P388 Leukemia (intraperitoneal) in B6D2F1 (BDF1) mice
Conditions: endpoint: median survival time, higher = longer survival
Outline: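 Survival ratio, drug arm over vehicle arm, in mice with a transplanted tumour.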

[1] = dose: 100.0 mg/kg/injection, schedule: Q01DX009 (ip), vehicle: saline with Tween-80
[2] = dose: 200.0 mg/kg/injection, schedule: Q01DX009 (ip), vehicle: saline with Tween-80
[3] = dose: 400.0 mg/kg/injection, schedule: Q01DX009 (ip), vehicle: saline with Tween-80
[4] = dose: 100.0 mg/kg/injection, schedule: Q04DX003 (ip), vehicle: saline with Tween-80
[5] = dose: 200.0 mg/kg/injection, schedule: Q04DX003 (ip), vehicle: saline with Tween-80
[6] = dose: 400.0 mg/kg/injection, schedule: Q04DX003 (ip), vehicle: saline with Tween-80
[7] = dose: 25.0 mg/kg/injection, schedule: Q01DX009 (ip), vehicle: saline
[8] = dose: 50.0 mg/kg/injection, schedule: Q01DX009 (ip), vehicle: saline
[9] = dose: 100.0 mg/kg/injection, schedule: Q01DX010 (ip), vehicle: saline
[10] = dose: 100.0 mg/kg/injection, schedule: Q01DX009 (ip), vehicle: saline

CCCCCCCCCCCC(=O)NC1CC(O[C@H]2C[C@](O)(C(=O)CO)Cc3c(O)c4c(c(O)c32)C(=O)c2c(OC)cccc2C4=O)OC(C)C1O (stereo partly drawn)
T/C (dose: 0.78 mg/kg/injection, schedule: Q01DX009 (ip), vehicle: water): 113 % of control | T/C (dose: 3.13 mg/kg/injection, schedule: Q01DX009 (ip), vehicle: water): 159 % of control | T/C (dose: 6.25 mg/kg/injection, schedule: Q01DX009 (ip), vehicle: water): 168 % of control | T/C (dose: 12.5 mg/kg/injection, schedule: Q01DX009 (ip), vehicle: water): 240 % of control | T/C (dose: 25.0 mg/kg/injection, schedule: Q01DX009 (ip), vehicle: water): 159 % of control

CC(C)(C)CC(C)(C)c1c(O)cc(O)cc1Cl
T/C (dose: 12.5 mg/kg/injection, schedule: Q01DX009 (ip), vehicle: gum acacia): 99 % of control | T/C (dose: 25.0 mg/kg/injection, schedule: Q01DX009 (ip), vehicle: gum acacia): 91 % of control | T/C (dose: 50.0 mg/kg/injection, schedule: Q01DX009 (ip), vehicle: gum acacia): 89 % of control

CN(C)CCC(=O)O
T/C [1]: 100 % of control | T/C [2]: 95 % of control | T/C [3]: 90 % of control

CC(=O)n1cc(C2CC(=O)OC3=C2CC(=O)C(C)(C)C3)c2ccccc21 (stereo not drawn)
T/C (dose: 50.0 mg/kg/injection, schedule: Q04DX003 (ip), vehicle: saline with Tween-80): 100 % of control | T/C [4]: 88 % of control and 95 % of control | T/C [5]: 94 % of control and 95 % of control | T/C [6]: 94 % of control and 96 % of control

CC([OH2+])CNCCN.CC([OH2+])CNCCN.[Cu+2].[O-][Cl+3]([O-])([O-])[O-] (stereo not drawn)
T/C (dose: 12.5 mg/kg/injection, schedule: Q01DX009 (ip), vehicle: saline): 108 % of control | T/C [7]: 115 % of control | T/C [8]: 114 % of control

O=C(c1ccc(Cl)cc1)C1Cc2ccccc2C1=O (stereo not drawn)
T/C [1]: 91 % of control | T/C [4]: 91 % of control | T/C [2]: 91 % of control | T/C [5]: 121 % of control | T/C [3]: 100 % of control | T/C [6]: 100 % of control

O=c1oc2c3ccccc3c3ccccc3c2o1
T/C (dose: 25.0 mg/kg/injection, schedule: Q01DX009 (ip), vehicle: Klucel (hydroxypropylcellulose) (HPC)): 117 % of control | T/C (dose: 50.0 mg/kg/injection, schedule: Q01DX009 (ip), vehicle: Klucel (hydroxypropylcellulose) (HPC)): 115 % of control | T/C (dose: 100.0 mg/kg/injection, schedule: Q01DX009 (ip), vehicle: Klucel (hydroxypropylcellulose) (HPC)): 114 % of control

Cc1c2ccccc2c(CSC(=N)N)c2ccccc12
T/C (dose: 9.38 mg/kg/injection, schedule: Q04DX003 (ip), vehicle: saline with Tween-80): 154 % of control | T/C (dose: 12.5 mg/kg/injection, schedule: Q04DX003 (ip), vehicle: saline): 160 % of control | T/C (dose: 25.0 mg/kg/injection, schedule: Q04DX003 (ip), vehicle: saline): 180 % of control

O=C1c2ccccc2C(=O)c2c(NCCOCCO)ccc(NCCOCCO)c21
T/C (dose: 25.0 mg/kg/injection, schedule: Q01DX005 (ip), vehicle: saline with Tween-80): 98 % of control | T/C (dose: 50.0 mg/kg/injection, schedule: Q01DX005 (ip), vehicle: saline with Tween-80): 94 % of control | T/C (dose: 100.0 mg/kg/injection, schedule: Q01DX005 (ip), vehicle: saline with Tween-80): 90 % of control | T/C (dose: 200.0 mg/kg/injection, schedule: Q01DX005 (ip), vehicle: saline with Tween-80): 102 % of control

O=C(O)CC(O)(CC(=O)O)C(=O)O
T/C (dose: 50.0 mg/kg/injection, schedule: Q02DX005 (ip), vehicle: water): 123 % of control | T/C (dose: 100.0 mg/kg/injection, schedule: Q02DX005 (ip), vehicle: water): 114 % of control | T/C (dose: 400.0 mg/kg/injection, schedule: Q02DX005 (ip), vehicle: water): 94 % of control

c1ccc(CSc2ncnc3nc[nH]c23)cc1
T/C (dose: 12.5 mg/kg/injection, schedule: Q01DX010 (ip), vehicle: saline): 100 % of control | T/C (dose: 25.0 mg/kg/injection, schedule: Q01DX010 (ip), vehicle: saline): 100 % of control | T/C (dose: 50.0 mg/kg/injection, schedule: Q01DX010 (ip), vehicle: saline): 100 % of control | T/C [9]: 100 % of control

O=C1/C(=C\c2ccc(Cl)cc2)SC(=S)N1c1ccccc1
T/C (dose: 37.5 mg/kg/injection, schedule: Q01DX009 (ip), vehicle: saline with Tween-80): 88 % of control | T/C (dose: 75.0 mg/kg/injection, schedule: Q01DX009 (ip), vehicle: saline with Tween-80): 97 % of control | T/C (dose: 150.0 mg/kg/injection, schedule: Q01DX009 (ip), vehicle: saline with Tween-80): 108 % of control

COC(OC)c1[nH]c(=S)[nH]c(=O)c1Cc1cccc2ccccc12
T/C [1]: 111 % of control | T/C [4]: 100 % of control | T/C [2]: 92 % of control | T/C [5]: 91 % of control | T/C [3]: 88 % of control | T/C [6]: 87 % of control

C[NH-].C[NH-].[I][Pt+2][I]
T/C (dose: 1.56 mg/kg/injection, schedule: Q04DX003 (ip), vehicle: other): 120 % of control | T/C (dose: 3.12 mg/kg/injection, schedule: Q04DX003 (ip), vehicle: other): 120 % of control | T/C (dose: 6.25 mg/kg/injection, schedule: Q04DX003 (ip), vehicle: other): 163 % of control | T/C (dose: 12.5 mg/kg/injection, schedule: Q04DX003 (ip), vehicle: other): 163 % of control | T/C (dose: 50.0 mg/kg/injection, schedule: Q04DX003 (ip), vehicle: other): 154 % of control | T/C (dose: 100.0 mg/kg/injection, schedule: Q04DX003 (ip), vehicle: other): 116 % of control

CN(C)CCC12CC(=O)CCC1C=Cc1ccc(O)c(O)c12 (stereo not drawn)
T/C [7]: 100 % of control | T/C [8]: 95 % of control | T/C [10]: 91 % of control

O=C1OC(=O)C2C3CCC(O3)C12 (stereo not drawn)
T/C (dose: 0.39 mg/kg/injection, schedule: Q04DX003 (ip), vehicle: saline): 100 % of control | T/C (dose: 0.65 mg/kg/injection, schedule: Q01DX001 (ip), vehicle: saline): 104 % of control | T/C (dose: 0.78 mg/kg/injection, schedule: Q01DX009 (ip), vehicle: saline): 105 % of control | T/C (dose: 0.78 mg/kg/injection, schedule: Q04DX003 (ip), vehicle: saline): 100 % of control | T/C (dose: 1.31 mg/kg/injection, schedule: Q01DX001 (ip), vehicle: saline): 100 % of control | T/C (dose: 1.56 mg/kg/injection, schedule: Q01DX009 (ip), vehicle: saline): 100 % of control | T/C (dose: 1.56 mg/kg/injection, schedule: Q04DX003 (ip), vehicle: saline): 100 % of control | T/C (dose: 2.3 mg/kg/injection, schedule: Q04DX003 (ip), vehicle: saline): 110 % of control | T/C (dose: 2.62 mg/kg/injection, schedule: Q01DX001 (ip), vehicle: saline): 100 % of control | T/C (dose: 3.5 mg/kg/injection, schedule: Q04DX003 (ip), vehicle: saline): 115 % of control | T/C (dose: 5.2 mg/kg/injection, schedule: Q04DX003 (ip), vehicle: saline): 100 % of control | T/C (dose: 5.25 mg/kg/injection, schedule: Q01DX001 (ip), vehicle: Klucel (hydroxypropylcellulose) (HPC)): 91 % of control | T/C (dose: 5.25 mg/kg/injection, schedule: Q01DX001 (ip), vehicle: saline): 95 % of control | T/C (dose: 7.2 mg/kg/injection, schedule: Q04DX003 (ip), vehicle: saline): 100 % of control | T/C (dose: 21.0 mg/kg/injection, schedule: Q01DX001 (ip), vehicle: Klucel (hydroxypropylcellulose) (HPC)): 87 % of control

O=C(O)/C=N/NS(=O)(=O)/C=C/c1ccccc1
T/C (dose: 50.0 mg/kg/injection, schedule: Q01DX009 (ip), vehicle: other): 155 % of control | T/C (dose: 100.0 mg/kg/injection, schedule: Q01DX009 (ip), vehicle: other): 186 % of control

CC/C(=N\NS(=O)(=O)c1ccc(C)cc1)c1ccc(OC)cc1
T/C [8]: 92 % of control | T/C [10]: 104 % of control | T/C (dose: 200.0 mg/kg/injection, schedule: Q01DX009 (ip), vehicle: saline): 93 % of control

N[C@H](Cc1c[nH]c2ccccc12)C(=O)O
T/C [9]: 92 % of control | T/C (dose: 200.0 mg/kg/injection, schedule: Q01DX010 (ip), vehicle: saline): 96 % of control | T/C (dose: 400.0 mg/kg/injection, schedule: Q01DX010 (ip), vehicle: saline): 96 % of control | T/C (dose: 800.0 mg/kg/injection, schedule: Q01DX010 (ip), vehicle: saline): 110 % of control

COc1cc2ccc3c(c2cc1OC)N(C)C(OC)c1cc2c(cc1-3)OCO2 (stereo not drawn)
T/C (dose: 20.0 mg/kg/injection, schedule: Q01DX009 (ip), vehicle: water): 104 % of control | T/C (dose: 240.0 mg/kg/injection, schedule: Q01DX009 (ip), vehicle: water): 95 % of control

CN1C(c2ccc(Cl)cc2)OCC1(C)C (stereo not drawn)
T/C (dose: 50.0 mg/kg/injection, schedule: Q01DX001 (ip), vehicle: saline sonified): 100 % of control | T/C (dose: 100.0 mg/kg/injection, schedule: Q01DX001 (ip), vehicle: saline sonified): 100 % of control | T/C (dose: 200.0 mg/kg/injection, schedule: Q01DX001 (ip), vehicle: saline sonified): 100 % of control
